Test results: ChEMBL document CHEMBL1268953, “Discovery of novel 2-aryl-4-benzoyl-imidazoles targeting the colchicines binding site in tubulin as potential anticancer agents” (J Med Chem, 2010)

Experiments:
A-375 = experiment: Cytotoxicity against human A375 cells after 48 hrs by sulforhodamine B assay; assay type: functional, cell-based
[1] = Cytotoxicity against mouse B16-F1 cells after 48 hrs by sulforhodamine B assay; assay type: functional, cell-based
[2] = Cytotoxicity against human WM164 cells after 48 hrs by sulforhodamine B assay; assay type: functional, cell-based
LNCaP = experiment: Cytotoxicity against human LNCAP cells after 48 hrs by sulforhodamine B assay; assay type: functional, cell-based
PPC-1 = experiment: Cytotoxicity against human PPC1 cells after 48 hrs by sulforhodamine B assay; assay type: functional, cell-based
PC-3 = experiment: cells; settings: Homo sapiens, PC-3, 48 h
Description: Cytotoxicity against human PC3 cells after 48 hrs by sulforhodamine B assay

DU-145 = experiment: cells; settings: Homo sapiens, DU-145, 48 h
Description: Cytotoxicity against human DU145 cells after 48 hrs by sulforhodamine B assay

SMILES | IC50 (A-375; Homo sapiens, A-375, 48 h) [µM] | IC50 ([1]; Mus musculus, B16-F1, 48 h) [µM] | IC50 ([2]; Homo sapiens, WM164, 48 h) [µM] | IC50 (LNCaP) [µM] | IC50 (PPC-1; Homo sapiens, PPC-1, 48 h) [µM] | IC50 (PC-3) [µM] | IC50 (DU-145) [µM] | IC50 (PPC-1; ppc-1) [µM] | IC50 (A-375; a-375) [µM] | IC50 ([1]; b16-f1) [µM] | IC50 ([2]; wm164) [µM]
COc1cc(C(=O)c2c[nH]c(-c3ccc(F)cc3)n2)cc(OC)c1OC | 0.205 | 0.32 | 0.073 | 0.098 | 0.081 | 0.169 | 0.132 | – | – | – | –
O=C(c1cccc(F)c1)c1c[nH]c(-c2ccccc2)n1 | > 10 | > 10 | > 10 | > 10 | > 10 | > 10 | > 10 | – | – | – | –
O=C(c1ccc(F)cc1)c1c[nH]c(-c2ccc(OCc3ccccc3)cc2)n1 | 0.093 | 0.117 | 0.09 | 0.044 | 0.043 | 0.079 | 0.06 | – | – | – | –
CN(C)c1ccc(-c2nc(C(=O)c3ccc(F)cc3)c[nH]2)cc1 | – | – | 0.062 | 0.057 | 0.045 | 0.081 | – | – | – | – | –
O=C(c1cc(O)c(O)c(O)c1)c1c[nH]c(-c2ccc(O)c(O)c2)n1 | > 10 | > 10 | > 10 | > 10 | > 10 | > 10 | > 10 | – | – | – | –
COc1cc(-c2nc(C(=O)c3ccc(F)cc3)c[nH]2)cc(OC)c1OC | > 10 | > 10 | > 10 | > 10 | > 10 | > 10 | > 10 | – | – | – | –
O=C(c1ccc(F)cc1)c1cnc(-c2ccccc2C(F)(F)F)n1S(=O)(=O)c1ccccc1 | > 10 | > 10 | > 10 | > 10 | > 10 | > 10 | > 10 | – | – | – | –
COc1cc(C(=O)c2c[nH]c(-c3ccc(C)cc3)n2)cc(OC)c1OC | – | 0.046 | 0.008 | – | – | – | – | 0.011 | – | – | –
O=C(c1ccc(F)cc1)c1cnc(-c2ccc(OCc3ccccc3)cc2)n1S(=O)(=O)c1ccccc1 | 0.064 | 0.11 | 0.048 | 0.035 | 0.038 | 0.075 | 0.058 | – | – | – | –
O=C(c1ccc(F)cc1)c1c[nH]c(-c2ccccc2)n1 | – | 0.93 | – | 0.61 | 0.57 | 2.1 | 0.85 | – | – | – | –
Cc1cccc(C(=O)c2c[nH]c(-c3ccccc3)n2)c1 | > 10 | > 10 | > 10 | > 10 | > 10 | > 10 | > 10 | – | – | – | –
COc1cc(C(=O)c2cnc(-c3ccc(N(C)C)cc3)n2S(=O)(=O)c2ccccc2)cc(OC)c1OC | 0.162 | 1.2 | 0.308 | 0.062 | – | 0.093 | 0.099 | – | – | – | –
COc1cc(C(=O)n2ccnc2-c2ccccc2)cc(OC)c1OC | > 10 | > 10 | > 10 | > 10 | > 10 | > 10 | > 10 | – | – | – | –
COc1ccc(C(=O)c2c[nH]c(-c3ccccc3)n2)cc1 | > 10 | > 10 | > 10 | > 10 | > 10 | > 10 | > 10 | – | – | – | –
COc1cc(C(=O)c2c[nH]c(-c3ccc(Cl)cc3)n2)cc(OC)c1OC | 0.043 | 0.168 | – | 0.024 | 0.026 | 0.035 | 0.036 | – | – | – | –
COc1ccc(C(=O)c2cnc(-c3ccccc3)n2S(=O)(=O)c2ccccc2)cc1 | > 10 | > 10 | > 10 | > 10 | > 10 | > 10 | > 10 | – | – | – | –
Cc1ccc(-c2nc(C(=O)c3ccc(F)cc3)c[nH]2)cc1 | – | – | – | – | – | – | – | – | 0.108 | 0.297 | 0.112
COc1cc(C(=O)c2c[nH]c(-c3ccccc3)n2)cc(OC)c1OC | 0.16 | 0.12 | 0.1 | 0.15 | 0.13 | 0.29 | 0.2 | – | – | – | –
COc1ccc(C(=O)c2c[nH]c(-c3ccccc3)n2)cc1OC | > 10 | > 10 | > 10 | > 10 | > 10 | > 10 | > 10 | – | – | – | –
CN(C)c1ccc(-c2ncc(C(=O)c3ccc(F)cc3)n2S(=O)(=O)c2ccccc2)cc1 | 0.055 | 0.242 | 0.056 | 0.056 | 0.048 | 0.083 | 0.074 | – | – | – | –
COc1ccc(C(=O)n2ccnc2-c2ccccc2)cc1 | > 10 | > 10 | > 10 | > 10 | > 10 | > 10 | > 10 | – | – | – | –
O=C(c1ccc(F)cc1)c1cnc(-c2ccc(Cl)cc2)n1S(=O)(=O)c1ccccc1 | 0.088 | 0.107 | 0.07 | 0.048 | 0.054 | 0.076 | 0.064 | – | – | – | –

SMILES | IC50 (A-375; Homo sapiens, A-375, 48 h) [µM] | IC50 ([1]; Mus musculus, B16-F1, 48 h) [µM] | IC50 ([2]; Homo sapiens, WM164, 48 h) [µM] | IC50 (LNCaP) [µM] | IC50 (PPC-1; Homo sapiens, PPC-1, 48 h) [µM] | IC50 (PC-3) [µM] | IC50 (DU-145) [µM] | IC50 (PPC-1; ppc-1) [µM] | IC50 (A-375; a-375) [µM] | IC50 ([1]; b16-f1) [µM] | IC50 ([2]; wm164) [µM]
COc1cc(C(=O)c2c[nH]c(-c3ccc(C(F)(F)F)cc3)n2)cc(OC)c1OC | 0.163 | 0.468 | – | 0.134 | 0.11 | 0.127 | 0.174 | – | – | – | –
O=C(c1ccc(F)cc1)c1c[nH]c(-c2ccc(O)cc2)n1 | – | > 10 | > 10 | 10 | > 10 | > 10 | > 10 | – | – | – | –
O=C(c1cc(O)c(O)c(O)c1)c1c[nH]c(-c2ccc(Cl)cc2)n1 | 3.9 | 1.81 | 2.1 | 10 | > 10 | 10 | 10 | – | – | – | –
O=[N+]([O-])c1ccc(-c2nccn2S(=O)(=O)c2ccccc2)cc1 | > 10 | > 10 | > 10 | > 10 | > 10 | > 10 | > 10 | – | – | – | –
COc1cc(C(=O)c2cnc(-c3cc(OC)c(OC)c(OC)c3)n2S(=O)(=O)c2ccccc2)cc(OC)c1OC | > 10 | > 10 | > 10 | > 10 | > 10 | > 10 | > 10 | – | – | – | –
COc1ccc(-c2ncc(C(=O)c3cc(OC)c(OC)c(OC)c3)n2S(=O)(=O)c2ccccc2)cc1OC | 0.192 | 0.97 | 0.139 | 0.114 | – | 0.197 | 0.144 | – | – | – | –
COc1cc(C(=O)c2c[nH]c(-c3cc(OC)c(OC)c(OC)c3)n2)cc(OC)c1OC | 4.8 | > 10 | > 10 | > 10 | > 10 | > 10 | > 10 | – | – | – | –
COc1cc(C(=O)c2c[nH]c(-c3ccc(O)cc3)n2)cc(OC)c1OC | 1.6 | 2.4 | 1.8 | – | – | – | – | – | – | – | –
COc1cc(-c2ncc(C(=O)c3ccc(F)cc3)n2S(=O)(=O)c2ccccc2)cc(OC)c1OC | 3.84 | > 10 | > 10 | > 10 | > 10 | > 10 | > 10 | – | – | – | –
O=C(c1cc(O)c(O)c(O)c1)c1c[nH]c(-c2cc(O)c(O)c(O)c2)n1 | > 10 | > 10 | > 10 | > 10 | > 10 | > 10 | > 10 | – | – | – | –
COc1cc(C(=O)c2c[nH]c(-c3ccc(OCc4ccccc4)cc3)n2)cc(OC)c1OC | 5.2 | – | 5.5 | 2.79 | 2.84 | 10 | 10 | – | – | – | –
COc1ccc(-c2ncc(C(=O)c3ccc(F)cc3)n2S(=O)(=O)c2ccccc2)cc1OC | 0.96 | 2 | 1.4 | 1.92 | 1.44 | 10 | 3.31 | – | – | – | –
Cc1ccc(-c2ncc(C(=O)c3ccc(F)cc3)n2S(=O)(=O)c2ccccc2)cc1 | – | 0.287 | 0.107 | 0.055 | 0.057 | 0.08 | 0.08 | – | – | – | –
O=S(=O)(c1ccccc1)n1ccnc1-c1ccc(OCc2ccccc2)cc1 | > 10 | > 10 | > 10 | > 10 | > 10 | > 10 | > 10 | – | – | – | –
COc1cc(OC)cc(C(=O)c2c[nH]c(-c3ccccc3)n2)c1 | 2.8 | 5.4 | – | 3.6 | 2.1 | 3.2 | 2.6 | – | – | – | –
COc1cccc(C(=O)c2cnc(-c3ccccc3)n2S(=O)(=O)c2ccccc2)c1 | > 10 | > 10 | > 10 | > 10 | > 10 | > 10 | > 10 | – | – | – | –
COc1cc(C(=O)c2cnc(-c3ccccc3C(F)(F)F)n2S(=O)(=O)c2ccccc2)cc(OC)c1OC | > 10 | > 10 | > 10 | > 10 | > 10 | > 10 | > 10 | – | – | – | –
O=C(c1cccc(F)c1)c1cnc(-c2ccccc2)n1S(=O)(=O)c1ccccc1 | > 10 | > 10 | > 10 | > 10 | > 10 | > 10 | > 10 | – | – | – | –
COc1ccc(-c2nc(C(=O)c3ccc(F)cc3)c[nH]2)cc1OC | – | 4.21 | 1.4 | 2.53 | 2.17 | 10 | 10 | – | – | – | –
COc1ccc(-c2nc(C(=O)c3cc(OC)c(OC)c(OC)c3)c[nH]2)cc1 | – | 0.108 | – | 0.031 | 0.034 | 0.045 | 0.048 | – | – | – | –
COc1ccc(-c2nc(C(=O)c3cc(OC)c(OC)c(OC)c3)c[nH]2)cc1OC | – | 1.4 | 0.191 | – | – | – | – | – | – | – | –
